Source: patent publication US12351582B2, “Aurora kinase inhibitors and uses thereof” (WIGEN BIOMEDICINE TECHNOLOGY (SHANGHAI) CO., LTD., priority 2019, dated 2025)

How the values were obtained:
Aurora-A = target: T1, Aurora-A (Homo sapiens, UniProt O14965); experiment: Aurora kinase activity assay (Caliper mobility shift), Aurora A; type: biochemical; conditions: for IC50: recombinant Aurora kinase, FAM labeled peptide substrate
T1 sequence (O14965 1-403): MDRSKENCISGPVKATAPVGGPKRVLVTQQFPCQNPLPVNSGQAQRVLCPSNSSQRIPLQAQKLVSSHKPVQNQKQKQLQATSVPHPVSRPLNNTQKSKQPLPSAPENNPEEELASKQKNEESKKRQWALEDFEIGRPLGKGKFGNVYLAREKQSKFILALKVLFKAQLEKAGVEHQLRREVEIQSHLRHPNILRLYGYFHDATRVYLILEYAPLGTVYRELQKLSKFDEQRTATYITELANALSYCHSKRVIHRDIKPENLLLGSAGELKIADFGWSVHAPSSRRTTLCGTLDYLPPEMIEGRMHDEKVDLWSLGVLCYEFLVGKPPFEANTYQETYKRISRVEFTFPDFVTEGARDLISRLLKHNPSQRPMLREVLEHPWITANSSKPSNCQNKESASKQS
Protocol: (§1) The Caliper mobility shift assay was used to measure compound activity towards aurora kinase. 10 different concentrations of compounds were prepared by three-fold serial dilutions. Recombinant Aurora kinases in kinase buffer (20 mM HEPES, pH 7.5, 0.01% Triton X-100) were incubated with compounds for 10 minutes at room temperature. FAM labeled peptide substrates were subsequently added to initiate the reaction at 25° C. Conversion rates were measured by caliper after the reactions were terminated. […] Data were normalized to that of the vehicle control, and percentage of inhibition and IC50 were calculated.

Aurora-B = Aurora-B (Homo sapiens, UniProt Q96GD4); experiment: Aurora kinase activity assay (Caliper mobility shift), Aurora B; type: biochemical; conditions: recombinant Aurora kinase, FAM labeled peptide substrate
Protocol: as §1

H1975 cells = experiment: H1975 proliferation assay; type: cell-based; conditions: Homo sapiens, NCI-H1975; 72 hours incubation, cell survival through ATP quantification
Protocol: Cells were allowed to attach overnight and compounds were added to the cells for a further incubation of 72 hours. […] of CTL was added afterwards to measure cell survival through ATP quantification.

H1975 xenograft = experiment: In vivo anti-tumor growth in H1975 mouse xenografts; design: species or system nude mice
Protocol: (§2) Cells were passaged and harvested by trypsinization. 8×10^6 cells were implanted in the left armpit of nude mice. […] Tumor volume and body weight were monitored every other day. Mice were sacrificed on day 21 of treatment. Relative tumor volume (RTV) and tumor growth (T/C), and tumor growth inhibition (TGI) were calculated and analyzed.

H69 xenograft = experiment: In vivo anti-tumor growth in H69 mouse xenografts; design: species or system nude mouse; conditions: for RTV (relative tumor volume, Vt/V0) / T/C / TGI (%) / Body weight (g) D1 / Tumor volume (mm^3) D1 / Body weight (g) D21 / Tumor volume (mm^3) D21: H69 xenograft, bid*21, oral; for Body weight (g) D1 / Tumor volume (mm^3) D1: D1 first day of treatment; for Body weight (g) D21 / Tumor volume (mm^3) D21: D21 last day of treatment
Protocol: as §2, with “1×10^7 H69” for “8×10^6”, “mouse.” for “mice.”, “measured” for “monitored”, “analyzed statistically.” for “analyzed.”

[1] = Dosage 60, qd*21, oral gavage, D1 first day of treatment
[2] = Dosage 60, qd*21, oral gavage, D21 last day of treatment

Chain of Aurora-B (Q96GD4 whole entry): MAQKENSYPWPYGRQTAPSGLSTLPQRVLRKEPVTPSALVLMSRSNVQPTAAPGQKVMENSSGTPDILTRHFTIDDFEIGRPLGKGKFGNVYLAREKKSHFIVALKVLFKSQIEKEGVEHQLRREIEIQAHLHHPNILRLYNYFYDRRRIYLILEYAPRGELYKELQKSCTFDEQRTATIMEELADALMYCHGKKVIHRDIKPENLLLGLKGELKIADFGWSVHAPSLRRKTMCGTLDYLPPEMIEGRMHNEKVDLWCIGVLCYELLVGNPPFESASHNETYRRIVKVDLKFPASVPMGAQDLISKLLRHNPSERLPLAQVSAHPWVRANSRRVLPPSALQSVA

## CC1CC(Cc2nc(Nc3nccs3)ccc2F)(C(=O)O)CCN1C(C)c1cccc(Cl)c1F (stereo not shown) [Compound 9, 1-(1-(3-chloro-2-fluorophenyl)ethyl)-4-((3-fluoro-6-(thiazol-2-ylamino)pyridin-2-yl)methyl)-2-methylpiperidine-4-carboxylic acid]
Aurora-A
  IC50: 0.98 nM
Aurora-B
  IC50: 126 nM
H1975 cells
  IC50: 81 nM

## CC1CC(Cc2nc(Nc3nccs3)ccc2F)(C(=O)O)CCN1Cc1cccc2c1OC(F)(F)O2 (stereo not shown) [Compound 7, 1-((2,2-difluorobenzo[d][1,3]dioxol-4-yl)methyl)-4-((3-fluoro-6-(thiazol-2-ylamino)pyridin-2-yl)methyl)-2-methylpiperidine-4-carboxylic acid]
Aurora-A
  IC50: 1.1 nM
Aurora-B
  IC50: 822 nM
H1975 cells
  IC50: 99 nM

## [2H]C([2H])(c1cccc(Cl)c1F)N1CCC(Cc2nc(Nc3nccs3)ccc2F)(C(=O)O)CC1C (stereo not shown) [Compound 13, 1-((3-chloro-2-fluorophenyl)methyl-d2)-4-((3-fluoro-6-(thiazol-2-ylamino)pyridin-2-yl)methyl)-2-methylpiperidine-4-carboxylic acid]
Aurora-A
  IC50: 0.74 nM
Aurora-B
  IC50: 15 nM
H1975 cells
  IC50: 25 nM
H1975 xenograft; Dosage 60, qd*21, oral gavage
  RTV (relative tumor volume, Vt/V0): 4.72
  TGI (%): 81.07%
H1975 xenograft; [1]
  Body weight (g) D1: 17.82 g
  Tumor volume (mm^3) D1: 82.50 mm^3
H1975 xenograft; [2]
  Body weight (g) D21: 19.00 g
  Tumor volume (mm^3) D21: 373.74 mm^3
H1975 xenograft; Dosage 60, qd*21, oral gavage, TRTV/CRTV × 100
  T/C: 24.11%
H1975 xenograft; compared with LY-3295668
  activity in vivo in words (comment on Table 3): shows greater activity in vivo

## C[C@@H]1C[C@](Cc2nc(Nc3nccs3)ccc2F)(C(=O)O)CCN1Cc1cccc(Cl)c1F [Compound 1-1, (2R,4R)-1-(3-chloro-2-fluorobenzyl)-4-((3-fluoro-6-(thiazol-2-ylamino)pyridin-2-yl)methyl)-2-methylpiperidine-4-carboxylic acid]
Aurora-A
  IC50: 0.4 nM
Aurora-A; towards Aurora-A, Aurora-B and H1975
  potency in words (comment on Table 2): more potent than its racemic mixture
Aurora-B
  IC50: 16 nM
H1975 cells
  IC50: 12 nM
H69 xenograft; 2.5, 5 and 10 mg/kg twice daily, compared to LY-3295668
  H69 tumor growth in words (comment on Table 4): blocks H69 tumor growth in a dose dependent manner with markedly improved efficacy compared to LY-3295668
H69 xenograft; 2.5 mg/kg
  RTV (relative tumor volume, Vt/V0): 0.65
  T/C: 20%
  TGI (%): 111.16%
  Body weight (g) D1: 15.99 g
  Tumor volume (mm^3) D1: 287.46 mm^3
  Body weight (g) D21: 16.73 g
  Tumor volume (mm^3) D21: 180.58 mm^3
H69 xenograft; 5 mg/kg
  RTV (relative tumor volume, Vt/V0): 0.33
  T/C: 10%
  TGI (%): 120.31%
  Body weight (g) D1: 15.91 g
  Tumor volume (mm^3) D1: 284.84 mm^3
  Body weight (g) D21: 16.01 g
  Tumor volume (mm^3) D21: 90.43 mm^3
H69 xenograft; 10 mg/kg
  RTV (relative tumor volume, Vt/V0): 0.37
  T/C: 11%
  TGI (%): 120.34%
  Body weight (g) D1: 16.16 g
  Tumor volume (mm^3) D1: 287.92 mm^3
  Body weight (g) D21: 16.19 g
  Tumor volume (mm^3) D21: 93.16 mm^3

## CC1(C)CC(Cc2nc(Nc3nccs3)ccc2F)(C(=O)O)CCN1Cc1cccc(Cl)c1F (stereo not shown) [Compound 20, 1-(3-chloro-2-fluorobenzyl)-4-((3-fluoro-6-(thiazol-2-ylamino)pyridin-2-yl)methyl)-2,2-dimethylpiperidine-4-carboxylic acid]
Aurora-A
  IC50: 1.42 nM
Aurora-B
  IC50: 435 nM
H1975 cells
  IC50: 156 nM

## CC1CC(Cc2nc(Nc3nccs3)ccc2F)(C(=O)O)CCN1Cc1cccc(Cl)c1F (racemic) [Compound 1, 1-(3-chloro-2-fluorobenzyl)-4-((3-fluoro-6-(thiazol-2-ylamino)pyridin-2-yl)methyl)-2-methylpiperidine-4-carboxylic acid]
Aurora-A
  IC50: 0.64 nM
Aurora-B
  IC50: 20 nM
H1975 cells
  IC50: 22 nM

## Cc1cc(Nc2ccc(F)c(CC3(C(=O)O)CCN(C(=O)c4cccc(Cl)c4F)C(C)C3)n2)n[nH]1 (stereo not shown) [Compound 22, 1-(3-chloro-2-fluorobenzoyl)-4-((3-fluoro-6-((5-methyl-1H-pyrazol-3-yl)amino)pyridin-2-yl)methyl)-2-methylpiperidine-4-carboxylic acid]
Aurora-A
  IC50: 1.21 nM
Aurora-B
  IC50: 1140 nM
H1975 cells
  IC50: 155 nM

## CC1CC(Cc2nc(Nc3nccs3)ccc2F)(C(=O)O)CCN1Cc1ccnc(Cl)c1F (stereo not shown) [Compound 3, 1-((2-chloro-3-fluoropyridin-4-yl)methyl)-4-((3-fluoro-6-(thiazol-2-ylamino)pyridin-2-yl)methyl)-2-methylpiperidine-4-carboxylic acid]
Aurora-A
  IC50: 0.73 nM
Aurora-B
  IC50: 321 nM
H1975 cells
  IC50: 195 nM
